Laboratory results published in a melting point compilation (Tetko et al.; mined from patent text by program, amines drawn as free bases though some values may be those of a salt).

Structure (SMILES) | melting point
O=C(NC1CCCCC1)n1cc(F)c(=O)[nH]c1=O | 276 to 278 °C
CCOC(=O)c1c(CSc2nccn2CC)nc2cc(OC)c(OC)cc2c1-c1ccc(OC)c(OC)c1 | 157 to 158 °C
CC(=O)Nc1cc(NC(C)=C2C(=O)OC(=O)C(C(C)=O)=C2O)cc([N+](=O)[O-])c1 | > 270 °C
COCCOc1cc(OC)c(C(CC(=O)Nc2cc(C(N)=O)ccc2C(C)(C)C)CC(C)C)cc1Cl (stereo unspecified) | 178 to 179 °C
O=C(/C=C/c1ccc(F)c(F)c1)N1CCN(C(=O)c2cc(C(F)(F)F)cc(C(F)(F)F)c2)[C@H](Cc2c[nH]c3ccccc23)C1 | 214 to 217 °C
CC(=O)OC1CSC(Oc2cncc(-c3ccc(OC(C)C)c(F)c3)c2)C(OC(C)=O)C1OC(C)=O (stereo unspecified) | 65 °C
Cc1cc(-c2cnn3c(C(F)(F)F)cc(-c4ccc(Cl)cc4)nc23)ccn1 | 220 °C
CC#Cc1cc(C)c(C2=C(O)C3(CCN(OC)CC3)N(C)C2=O)c(C)c1 | > 240 °C
N#Cc1c[nH]cc1-c1ccccc1 | 123 to 125 °C
CC[C@@H](NC(=O)N1CC(=O)NC[C@@H](Cc2cc(Cl)ccc2OC)C1=O)c1cccc(C(=O)O)c1 | 121 to 123 °C
O=c1oc(-c2ccc(CCc3ccccc3)cc2)cc(O)c1SCCc1ccccc1 | 122 to 123 °C
CCOC(=O)C(=CNC1CC1)C(=O)c1cc(F)c(F)c(Cl)c1F | 78 to 80 °C
O=c1[nH]cnc2ccc(C(F)(F)F)cc12 | 209 to 211 °C
Cc1ccc(NC(=O)c2ccc(CN3C[C@@H](C)N[C@@H](C)C3)c(Br)c2)cc1Nc1nccc(-c2cccnc2)n1 | 204 to 205 °C
Cc1ccc2c(CCNCC#N)c[nH]c2c1 | 92 °C
CCCCCCSCCSc1nc2nc(C)cc(O)n2n1 | 126 °C
CCCCCCS(=O)(=O)c1nn2c(=O)c(C(C)=O)cnc2s1 | 124 to 125 °C
O=C1CC(Nc2cc([N+](=O)[O-])ccc2Cl)=NN1c1c(Cl)cc(Cl)cc1Cl | 278 to 280 °C
Cc1cnc2[nH]c3ccccc3c2c1 | 270 °C
CC(C)(C)n1c(=O)[nH]c2ccccc2c1=O | 218 to 220 °C
CCOC(=O)c1noc(C2CC2)c1C(=O)c1ccc(Br)cc1CSC | 42 to 43 °C
Cc1c(C)c2c(c(C)c1OCc1ccccc1)CCC(C)(C(=O)O)O2 (stereo unspecified) | 154 to 155 °C
Cc1cccc2sc(-n3nc(CCC(=O)N(C)O)cc3-c3ccc(Cl)cc3)nc12 | 156 to 158 °C
Cn1c(CO)nnc1NCCCOc1cccc(CN2CCCCC2)c1 | 151 to 152 °C
O=C(O)C(Cc1ccccc1)Oc1ccc2cc(-c3oc4ccccc4c3Br)ccc2c1Br (stereo unspecified) | 206 to 209 °C
CCOC(=O)C1=C(C)NN=C(CC)C1c1cccc(Cl)c1 (stereo unspecified) | 112 °C

Structure (SMILES) | melting point
CC(C)Nc1nc2c(F)c(F)c(F)cc2n1[C@@H]1O[C@H](C)[C@@H](O)[C@H]1O | 148 to 151 °C
CC1Nc2ccccc2-c2c([N+](=O)[O-])cnn21 (stereo unspecified) | 173 to 175 °C
O=C(O)Cn1c(=O)c(=O)[nH]c2ccc3ccc(-n4ccc(CN5CCN(C(c6ccccc6)c6ccccc6)CC5)c4)cc3c21 | > 250 °C
O=C(c1ccc(-c2ccc3nnn(Cc4ccc5ncccc5c4)c3n2)cc1)N1CCN(CCO)CC1 | 158 to 160 °C
Cn1c(C(F)(F)F)cc(=O)n(-c2ccc3snc(C4OCCO4)c3c2)c1=O | 213 to 216 °C
CCOC(=O)c1ccc2nc(CC3CCN(c4ccc(Cl)nn4)CC3)sc2c1 | 158 °C
CCOC(=O)COc1cccc(-c2n[nH]c3c2Cc2ccccc2-3)c1 | 134 to 136 °C
CCOC(=O)c1ccc(OC)c(OCc2nc(C)c(C)nc2C)c1 | 130 °C
Cc1nc2c(-c3cccc(N4CCN(CCO)CC4)c3)cnn2c(N)c1-c1cccc(Cl)c1 | 108 to 116 °C
Nc1ccc(S(=O)(=O)NCCc2ccccc2)cc1 | 114 °C
O=C(c1ccccc1)c1cn2c3ccccc3c3cccc(c1=O)c32 | 158 to 160 °C
C=CC(C)(O)C#Cc1ncn2c1CN(C)C(=O)c1c(Cl)cccc1-2 (stereo unspecified) | 185 to 187 °C
CC(=O)CSc1nc2ccc(Cc3ccccc3)cc2[nH]1 | 102 °C
CN(C)n1c(Br)nn(C(=O)Oc2ccccc2)c1=O | 136 °C
Cc1cc(F)ccc1-c1nc(NC2CCCCC2)nc2c1ccc(=O)n2-c1c(F)cccc1F | 218 to 219 °C
Cc1cccc(C(F)(F)C(F)(F)c2ccccc2)c1C | 110 to 112 °C
OC(COc1ccc(-c2cc[nH]n2)cc1)CN1CCN(c2ccc(Cl)cc2)CC1 (stereo unspecified) | 211 to 212 °C
CCc1nn(C2CCCC2)c(N)c1C(N)=O | 167 to 168 °C
N#Cc1cnc2sc(C(=O)O)cc2c1Nc1ccc2[nH]ccc2c1 | > 250 °C
CCCN(c1nc(-c2ccc(Cl)cc2Cl)c(C)s1)C(c1ccccc1)C1CC1 (stereo unspecified) | 78 to 81 °C
COc1ccc2cccc3c2c1C(=O)C3=O | 218 to 220 °C
CS(=O)(=O)c1ccc(-c2cnn(CC(=O)c3ccc(Cl)cc3)c(=O)c2-c2ccc(F)cc2)cc1 | 186 to 188 °C
COC(=O)c1cc(NC(=O)OC(C)(C)C)c(N)cc1C#Cc1ccccc1 | 164 °C
CC(C)c1nc(-c2ccccc2)nc(-c2ccc(F)cc2)c1C=CI | 119 to 122 °C
CNc1ncnc2c1ncn2CCCN1CCN(c2ccccc2)CC1 | 162 to 163 °C
Oc1ccc2c(c1)CCN(c1ccc(Cl)cc1)C2 | 122 to 123 °C

Structure (SMILES) | melting point
CCOP(=O)(CCCCCCOc1ccc(C(=O)O)cc1)OCC | 215 to 216 °C
Cc1cc(C)c(Nc2nc(Nc3ccc(C#N)cc3)nc(Cl)c2Br)c(C)c1 | 220 to 221 °C
Nc1nc(-c2ccc(NC(=O)CN(Cc3ccccc3)C(=O)C3CCCCC3)cc2)cs1 | 214 to 216 °C
CCCCCCC(=O)CCCC(=O)O | 58 to 59 °C
C#Cc1cc(Nc2ncnc3cnc(NC(=O)/C=C/CN(C)C)cc23)ccc1Cl | 173 to 176 °C
COCCCCCCCCCCCc1nnn[nH]1 | 66.3 to 68.3 °C
c1ccc(-c2noc(COc3ccc(CCCn4ccnc4)cc3)n2)cc1 | 124 to 125 °C
COc1ccc(-c2nc3scc(-c4cc(C(C)(C)C)c(O)c(C(C)(C)C)c4)n3c2-c2ccc(OC)cc2)cc1 | 236 to 237 °C
CCCc1cc(Cl)c2occ(C)c2c1O | 49 to 50 °C
CNS(=O)(=O)c1ccc(-c2cnc3[nH]cc(C(=O)C(C)(C)C)c3n2)cc1 | 278 to 280 °C
N#CC(C#N)C(=O)c1ccoc1 | 98 to 99 °C
CCC(Nc1ncnc2[nH]cnc12)c1oc2cccc(F)c2c(=O)c1-c1ccccc1 (stereo unspecified) | 210 to 212 °C
COC=C(C(=O)OC)N(C)c1nc(-c2ccc(Cl)c(Cl)c2)cs1 | 96 to 98 °C
COc1cc(OC)c(N2CCCC2)cc1/C=C/C(=O)c1ccc(S(=O)(=O)Nc2cc(C)on2)cc1 | 164 to 165 °C
COc1cc(C(=O)OCc2ccccc2)ccc1S(=O)(=O)Cl | 72 °C
O=C1c2cc(O)ccc2OCN1CCO | 148 to 150 °C
Cn1ccc(=O)c(CO)c1 | 185 to 186 °C
CC(C)(C)C(Cc1ccc(Br)cc1)C(=O)n1ccnc1 (stereo unspecified) | 101 to 102 °C
CCOc1ccc2c(c1)C(=O)OC2C(Cl)(Cl)Cl (stereo unspecified) | 112 to 114 °C
CC(C)c1cc(Oc2ccc(Cl)cc2)nc(C(C)C)c1N | 86 to 88 °C
CCCCN1C(=O)C2(COc3cc4c(cc32)OCO4)c2ccccc21 (stereo unspecified) | 119 to 120 °C
CC(C)(C)CCCC(=O)Cn1ccnc1 | 45 to 46 °C
CC(C)Oc1cc(NC(=O)CC(CCCl)C(F)(F)F)c(F)cc1Cl (stereo unspecified) | 57 to 63 °C
CCC(C)COc1ccc(-c2ccc(O)c(Br)c2)cc1 (stereo unspecified) | 49.4 °C
CCOC(=O)C(N)C=C(CCCCCCN)CP(=O)(O)O (stereo unspecified) | 194 °C
CC(=NC(=Nc1ccccc1)N1CCOCC1)NCCO | 132 to 134 °C

Structure (SMILES) | melting point
COc1ccc(CCOc2cccc(-c3cccc(C(=O)NCCN4CCCC4)c3)n2)cc1OC | 126 to 127 °C
O=C(NNc1ccccc1)N1CCN2C(=O)OC(c3ccccc3)(c3ccccc3)C2C1 (stereo unspecified) | 227 to 228 °C
NNC(=O)Nc1cccc2c1C(=O)c1c-2n[nH]c1-c1ccc(N2CCNCC2)cc1 | 257 °C
Cn1ncc(/C=C/C(=O)Nc2ccc(Cc3ccccn3)cc2)c1-c1ccc(F)cc1 | 215 to 216 °C
CC1=C(/C=C/C(C)=C/C=C/C(C)=C\C(=O)O)C(C)(C)C(O)C=C1 (stereo unspecified) | 108 to 110 °C
CS(=O)(=O)N1C[C@@H](P(=O)(c2ccccc2)c2ccccc2)C[C@H]1CO | 138 to 139 °C
CN(C)C(=O)CCN1CCC(C(O)(c2ccc(F)cc2)c2ccc(F)cc2)CC1 | 134 to 135 °C
Cc1cc2c(-c3ccccc3Cl)c(NC(=O)Nc3ccc(Cl)cc3)c(=O)n(C)c2cc1C | 207 to 209 °C
Oc1cccc(COC=C2C3CC4CC(C3)CC2C4)c1 | 133 to 134 °C
Oc1ccc2nc(-c3cccc(Cl)c3)oc2c1 | 246 to 248 °C
C[C@@H]1CCN(C(=O)OC(C)(C)C)C[C@@H]1N(C)C(=O)OC(C)(C)C | 118 °C
C=CCc1c(O)ccc2c(C)c(CC(=O)OC)c(=O)oc12 | 160 to 162 °C
CCCCNC(=O)NS(=O)(=O)c1ccccc1S(=O)(=O)OCC(F)(F)F | 140 to 142 °C
COC(=O)c1ccc(N=Cc2ccccc2)cn1 | 84 to 89 °C
CN(C(=O)CBr)c1ccc(Cl)cc1C(=O)c1ccccc1Cl | 86 °C
CC(CCOS(N)(=O)=O)Oc1ccccc1 (stereo unspecified) | 76 to 77 °C
C=C(C)c1ccc2occ(C#N)c(=O)c2c1 | 142 to 144 °C
Cc1noc(NS(=O)(=O)c2ccccc2-c2ccc(-c3ccccn3)cc2)c1C | 85 to 90 °C
COc1ccc(-c2cc(F)cc3c2NC(CN)CO3)c(C)c1 (stereo unspecified) | 82 °C
CCOC(=O)c1ccc(Sc2cc3c(cc2C)C(C)(C)CCC3(C)C)cc1 | 109 to 110 °C
O=c1cc(-c2ccncc2)nc2n1Cc1ccccc1N2 | 315 to 317 °C
O=c1c2cccc3ncc(c(=O)n1CCCCCNS(=O)(=O)C(F)(F)F)n32 | 166 to 167 °C
CCCCCCCCCCCN=C1SC(=CC(=O)O)C(=O)N1CCCCCCCCCCC | 67 to 68 °C
